This is an account of results in US20240140944A1, “NOVEL NAPHTHYRIDINONE DERIVATIVE HAVING INHIBITORY ACTIVITY AGAINST ECTONUCLEOTIDE PYROPHOSPHATASE-PHOSPHODIESTERASE AND USE THEREOF” (TXINNO BIOSCIENCE INC., priority 2020, published 2024).

Counter-ions that a name gives are not always drawn.

The target in the test is T1, human recombinant ENPP1 enzymes (Homo sapiens, UniProt P22413).
T1 construct: purchased R & D systems
T1 sequence (P22413 1-925): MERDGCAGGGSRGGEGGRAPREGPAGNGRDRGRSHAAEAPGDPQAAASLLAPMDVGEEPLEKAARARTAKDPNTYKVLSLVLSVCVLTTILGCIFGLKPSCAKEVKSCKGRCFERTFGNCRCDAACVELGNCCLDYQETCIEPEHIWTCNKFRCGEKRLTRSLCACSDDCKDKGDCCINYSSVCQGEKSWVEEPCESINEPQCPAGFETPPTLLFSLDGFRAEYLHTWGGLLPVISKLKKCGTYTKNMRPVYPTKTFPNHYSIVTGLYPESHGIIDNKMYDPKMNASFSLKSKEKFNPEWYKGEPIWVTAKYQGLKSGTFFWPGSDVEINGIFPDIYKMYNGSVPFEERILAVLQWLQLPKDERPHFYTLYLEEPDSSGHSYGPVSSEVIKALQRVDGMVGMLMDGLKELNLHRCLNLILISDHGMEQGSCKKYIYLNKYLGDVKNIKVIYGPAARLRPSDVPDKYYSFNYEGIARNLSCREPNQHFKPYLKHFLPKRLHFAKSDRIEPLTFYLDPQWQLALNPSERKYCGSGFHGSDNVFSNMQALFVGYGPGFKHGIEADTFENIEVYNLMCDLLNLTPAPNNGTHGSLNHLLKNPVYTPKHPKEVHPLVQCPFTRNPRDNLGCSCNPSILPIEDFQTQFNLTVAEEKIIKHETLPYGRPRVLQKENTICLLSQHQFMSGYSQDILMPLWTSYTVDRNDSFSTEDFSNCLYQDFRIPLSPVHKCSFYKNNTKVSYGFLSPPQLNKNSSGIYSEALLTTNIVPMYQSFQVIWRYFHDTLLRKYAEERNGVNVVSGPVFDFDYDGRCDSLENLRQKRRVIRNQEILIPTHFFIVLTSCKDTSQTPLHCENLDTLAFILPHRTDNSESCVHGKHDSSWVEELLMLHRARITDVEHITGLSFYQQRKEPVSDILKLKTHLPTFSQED
As to the kind of experiment: ENPP1 Enzyme Assay with cGAMP Substrate (AMP-Glo). The class given is biochemical. The conditions noted are these: human recombinant ENPP1 3 ng/reaction, cGAMP 5 μM, 37° C. 90 minutes, average of two or more tests; read-out: Enzymatic activity IC50. As for the experimental part:
ENPP1 hydrolyzes nucleotides or nucleotide derivatives to produce nucleoside-5′-monophosphate and pyrophosphate. In addition, ENPP1 hydrolyzes 2′,3′-cGAMP to produce 5′-adenosine monophosphate (AMP) and 5′-guanosine monophosphate (GMP). AMP produced from the reaction is measured using the AMP-Glo® kit (Promega). The AMP-Glo® kit contains two reagents. The first reagent terminates the AMP-producing enzymatic reaction, removes ATP and converts the produced AMP into ADP. The second reagent converts ADP to ATP which is used to generate luminescence in the luciferase reaction. The amount of luminescence measured is proportional to the amount of AMP produced by ENPP1.
The final reaction mixture contains 50 mM Tris (pH 8.5) buffer, 250 mM NaCl, 0.5 mM CaCl2), 1 μM ZnCl2, 5% glycerol and 1% DMSO. Serially diluted ENPP1 inhibitors (typically in the range of 10 μM to 0.5 nM) were pre-stored with human recombinant ENPP1 enzymes (R & D systems) at 3 ng/reaction and room temperature (RT) for 5 to 10 minutes. The reaction was initiated by addition of cGAMP (at a final concentration of 5 μM) and reacted at 37° C. for 90 minutes. At the end of the reaction, 10 μl of the AMP-Glo first reagent was added to stop the reaction and the result was stored at room temperature for 1 hour. After storage, 20 μl of an AMP detection solution (a mixture of AMP-Glo II reagent and Kinase-Glo at a ratio of 1:100) was added and stored at room temperature for 1 hour. Luminescence signals were measured using a Victor® plate reader (Perkin Elmer). The maximal activity control (containing enzymes and substrates in the presence of 1% DMSO; MAX) and the minimal activity control (containing substrates and 1% DMSO; MIN) were evaluated simultaneously. In each experiment, serially diluted reference ENPP1 inhibitors were tested as well. IC50, indicating % residual activity versus compound concentration was determined by fitting inhibition curves using the 3-parameter analysis of GraphPad Prism® software. Serially diluted samples of one compound were tested two or more times and an average IC50 of each compound was calculated.

In general, IC50 refers to the concentration that inhibits the measured activity by half. Take `NS(=O)(=O)NCC1CCN(c2ccnc3[nH]c(=O)ccc23)CC1` [Example 124, N-((1-(7-oxo-7,8-dihydro-1,8-naphthyridin-4-yl)piperidin-4-yl)methyl)sulfamide]: the IC50 was < 1 µM.

Consider `Cn1c(=O)ccc2c(-c3ccc(CN)cc3)ccnc21` [Example 29, 5-(4-(aminomethyl)phenyl)-1-methyl-1,8-naphthyridin-2(1H)-one hydrochloride], for which the IC50 was in the range of 1 to 10 µM.

`NS(=O)(=O)N1Cc2ccc(Nc3ccnc4[nH]c(=O)ccc34)cc2C1` [Example 101, 5-((7-oxo-7,8-dihydro-1,8-naphthyridin-4-yl)amino)isoindolin-2-yl)sulfamide dihydrochloride]: the concentration for half-maximal inhibition (IC50) is < 1 µM.

With `O=c1ccc2c(-c3ccc4c(c3)CNCC4)ccnc2[nH]1` [Example 27, 5-(1,2,3,4-tetrahydroisoquinolin-7-yl)-1,8-naphthyridin-2(1H)-one hydrochloride], the IC50 lay within 1 to 10 µM.

Turning to `CN[C@H](C)c1ccc(-c2ccnc3[nH]c(=O)ccc23)cc1` [Example 17, (R)-5-(4-(1-(methylaminoethyl)phenyl)-1,8-naphthyridin-2(1H)-one hydrochloride], the IC50 fell in the range of 1 to 10 µM.

Take `NS(=O)(=O)NCc1ccc(-c2ccnc3[nH]c(=O)ccc23)cc1` [Example 40, N-(4-(7-oxo-7,8-dihydro-1,8-naphthyridin-4-yl)benzyl)sulfamide]: the IC50 was < 1 µM.

`NS(=O)(=O)NCc1cccc(Nc2ccnc3[nH]c(=O)ccc23)c1` [Example 89, N-(3-((7-oxo-7,8-dihydro-1,8-naphthyridin-4-yl)amino)benzyl)sulfamide dihydrochloride]: the IC50 was < 1 µM.

For the compound `CCN(Cc1ccc(-c2ccnc3[nH]c(=O)ccc23)cc1)S(N)(=O)=O` [Example 51, N-ethyl-N-(4-(7-oxo-7,8-dihydro-1,8-naphthyridin-4-yl)benzyl)sulfamide hydrochloride], the IC50 is < 1 µM.

With `NCC1CCN(c2ccnc3[nH]c(=O)ccc23)CC1` [Example 114, 5-(4-(aminomethyl)piperidin-1-yl)-1,8-naphthyridin-2(1H)-one hydrochloride], the IC50 was < 1 µM.

As for `O=C1CCc2c(-c3ccc4c(c3)CNCC4)ccnc2N1` [Example 135, 5-(1,2,3,4-tetrahydroisoquinolin-7-yl)-3,4-dihydro-1,8-naphthyridin-2(1H)-one hydrochloride], the IC50 is > 10 µM.

Consider `NS(=O)(=O)Nc1cccc(Nc2ccnc3[nH]c(=O)ccc23)c1` [Example 88, N-(3-((7-oxo-7,8-dihydro-1,8-naphthyridin-4-yl)amino)phenyl)sulfamide dihydrochloride], for which the IC50 was < 1 µM.

With `NS(=O)(=O)NCc1ccc(Nc2ccnc3[nH]c(=O)ccc23)cc1` [Example 98, N-(4-((7-oxo-7,8-dihydro-1,8-naphthyridin-4-yl)amino)benzyl)sulfamide dihydrochloride], the half-maximal inhibitory concentration (IC50) was 1 to 10 µM.

`O=c1ccc2c(-c3ccc(CP(=O)(O)O)cc3)ccnc2[nH]1` [Example 75, (4-(7-oxo-7,8-dihydro-1,8-naphthyridin-4-yl)benzyl)phosphonic acid]: the half-inhibitory concentration (IC50) was < 1 µM.

As to `Nc1ccc(Nc2ccnc3[nH]c(=O)ccc23)cc1` [Example 81, 5-((4-aminophenyl)amino)-1,8-naphthyridin-2(1H)-one dihydrochloride], the IC50 was < 1 µM.

For the compound `NCc1cc(Nc2ccnc3[nH]c(=O)ccc23)ccc1F` [Example 78, 5-((3-aminomethyl)-4-fluorophenyl)amino)-1,8-naphthyridin-2(1H)-one dihydrochloride], the IC50 was < 1 µM.

Regarding `NS(=O)(=O)NCc1ccc(-c2ccnc3c2CCC(=O)N3)cc1` [Example 141, N-(4-(7-oxo-5,6,7,8-tetrahydro-1,8-naphthyridin-4-yl)benzyl)sulfamide], the IC50 is < 1 µM.

Regarding `Cn1c(=O)ccc2c(-c3ccc(CNS(N)(=O)=O)cc3)ccnc21` [Example 67, N-(4-(8-methyl-7-oxo-7,8-dihydro-1,8-naphthyridin-4-yl)benzyl)sulfamide], the IC50 was < 1 µM.

Consider `Cl.Nc1ccc(F)c(-c2ccnc3[nH]c(=O)ccc23)c1` [Example 8, 5-(5-(amino-2-fluorophenyl)-1,8-naphthyridin-2(1H)-one hydrochloride], for which the IC50 was > 10 µM.

For the compound `CC(C)(N)c1ccc(-c2ccnc3[nH]c(=O)ccc23)cc1` [Example 16, 5-(4-(2-aminopropan-2-yl)phenyl)-1,8-naphthyridin-2(1H)-one hydrochloride], the IC50 lay in the range of 1 to 10 µM.

Turning to `O=c1ccc2c(Nc3cc4c(cc3F)CNCC4)ccnc2[nH]1` [Example 86, 5-((7-fluoro-1,2,3,4-tetrahydroisoquinolin-6-yl)amino)-1,8-naphthyridin-2(1H)-one dihydrochloride], the IC50 fell in the range of 1 to 10 µM.

With `CN(Cc1ccc(-c2ccnc3[nH]c(=O)ccc23)cc1)S(N)(=O)=O` [Example 50, N-methyl-N-(4-(7-oxo-7,8-dihydro-1,8-naphthyridin-4-yl)benzyl)sulfamide hydrochloride], the IC50 is < 1 µM.

For the compound `Cn1c(=O)ccc2c(N3CCC(CNS(N)(=O)=O)CC3)ccnc21` [Example 128, N-((1-(8-methyl-7-oxo-7,8-dihydro-1,8-naphthyridin-4-yl)piperidin-4-yl)methyl)sulfamide], the IC50 was < 1 µM.

As for `C[C@@H](NS(N)(=O)=O)c1ccc(-c2ccnc3[nH]c(=O)ccc23)cc1F` [Example 48, (R)-(N-(1-(2-fluoro-4-(7-oxo-7,8-dihydro-1,8-naphthyridin-4-yl)phenyl)ethyl)sulfamide hydrochloride], the IC50 was < 1 µM.

For the compound `NS(=O)(=O)NC1Cc2ccc(Nc3ccnc4[nH]c(=O)ccc34)cc2C1` (centres unmarked) [Example 107, N-(5-((7-oxo-7,8-dihydro-1,8-naphthyridin-4-yl)amino)-2,3-dihydro-1H-inden-2-yl)sulfamide dihydrochloride], the IC50 was < 1 µM.

With `NS(=O)(=O)NCc1cc(F)c(-c2ccnc3[nH]c(=O)ccc23)c(F)c1` [Example 44, N-(3,5-difluoro-4-(7-oxo-7,8-dihydro-1,8-naphthyridin-4-yl)benzyl)sulfamide hydrochloride], the half-inhibitory concentration (IC50) was < 1 µM.

In the case of `CN(c1ccc2c(c1)CN(S(N)(=O)=O)CC2)c1ccnc2[nH]c(=O)ccc12` [Example 108, (7-(methyl(7-oxo-7,8-dihydro-1,8-naphthyridin-4-yl)amino)-3,4-dihydroisoquinolin-2(1H)-yl)sulfamide dihydrochloride], the IC50 was > 10 µM.

Turning to `O=c1ccc2c(Nc3ccc4c(c3)CCNC4)ccnc2[nH]1` [Example 85, 5-((1,2,3,4-tetrahydroisoquinolin-6-yl)amino)-1,8-naphthyridin-2(1H)-one dihydrochloride], the IC50 is < 1 µM.

Consider `CC(C)(C)OC(=O)NS(=O)(=O)N1CCc2ccc(-c3ccnc4c3CCC(=O)N4)cc2C1` [Example 138, tert-butyl((7-(7-oxo-5,6,7,8-tetrahydro-1,8-naphthyridin-4-yl)-3,4-diisoquinoline-2(1H)-yl)sulfonyl)carbamate], for which the IC50 is 1 to 10 µM.

Regarding `CC(C)(C)OC(=O)NCc1cccc(-c2ccnc3[nH]c(=O)ccc23)c1` [Example 2, tert-butyl(3-(7-oxo-7,8-dihydro-1,8-naphthyridin-4-yl)benzyl)carbamate], the IC50 lay in the range of 1 to 10 µM.
